# Results taken from patent US6008196A, “Perfluoroalkyl ketone inhibitors of elastase and processes for making the same” (Hoechst Marion Roussel, Inc., priority 1996, dated 1999).
# Biological target: T1, Human Neutrophil Elastase (Homo sapiens, UniProt P08246)
# T1 construct: Enzyme is purified from human sputum, although recently it has become commercially available; from tissue; host or cells: human sputum
# T1 sequence (P08246 30-247 limits assumed): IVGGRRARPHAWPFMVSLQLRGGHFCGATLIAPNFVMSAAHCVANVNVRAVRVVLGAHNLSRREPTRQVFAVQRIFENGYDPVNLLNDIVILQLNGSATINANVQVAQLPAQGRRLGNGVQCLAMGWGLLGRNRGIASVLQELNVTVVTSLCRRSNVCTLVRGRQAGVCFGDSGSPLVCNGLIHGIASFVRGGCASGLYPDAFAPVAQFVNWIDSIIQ
# Test: Human neutrophil elastase assayed in vitro with N-MeOSuc-Ala-Ala-Pro-Val-p-nitroanilide as substrate
# Assay type: biochemical
# Conditions: enzyme purified from human sputum
# Description: Human neutrophil elastase is assayed in vitro using N-MeOSuc-Ala-Ala-Pro-Val-p-nitroanilide, available commercially, as substrate. […] Enzyme is purified from human sputum, although recently it has become commercially available. Kinetic characterization of immediate inhibitors is by means of the Dixon plot, whereas the characterization of slow- and/or tight-binding inhibitors used data analysis techniques reviewed by Williams and Morrison. The synthesis and analytical use of a highly sensitive and convenient substrate of elastase is described in J. Bieth, B. Spiess and C. […] For the purposes of this table, MCBz refers to 4-(4-morpholinylcarbonyl)benzoyl and Pyr refers to 3-(3-pyridyl)propanoyl.
row,Ki,SMILES
1,490 nM,"CC(C)C(NC(=O)[C@@H]1CCCN1C(=O)[C@@H](NC(=O)OC(C)(C)C)C(C)C)C(=O)C(F)(F)C(F)(F)C(F)(F)F (stereo partly drawn) [Boc--Val--Pro--Val--CF2 CF2 CF3, N-[(1,1-dimethylethoxy)carbonyl]-L-valyl-N'-[3,3,4,4,5,5,5-heptafluoro-1-(1-methylethyl)-2-oxopentyl]-L-prolinamide]"
2,18 nM,"CC(C)C(NC(=O)[C@@H]1CCCN1C(=O)[C@@H](NC(=O)c1ccc(C(=O)N2CCOCC2)cc1)C(C)C)C(=O)C(F)(F)C(F)(F)C(F)(F)F (stereo partly drawn) [MCBz--Val--Pro--Val--CF2 CF2 CF3, N-[4-(4-morpholinylcarbonyl)benzoyl]-L-valyl-N'-[3,3,4,4,5,5,5-heptafluoro-1-(1-methylethyl)-2-oxopentyl]-L-prolinamide]"
3,590 nM,"CC(C)C(NC(=O)[C@@H]1CCCN1C(=O)[C@@H](NC(=O)OC(C)(C)C)C(C)C)C(=O)C(F)(F)C(F)(F)C(F)(F)C(F)(F)F (stereo partly drawn) [Boc--Val--Pro--Val--CF2 CF2 CF2 CF3, N-[(1,1-dimethylethoxy)carbonyl]-L-valyl-N'-[3,3,4,4,5,5,6,6,6-nonafluoro-1-(1-methylethyl)-2-oxohexyl]-L-prolinamide]"
